Measured values as given in patent US11000033B2, “Ketone or oxime compound, and herbicide” (NISSAN CHEMICAL CORPORATION, priority 2014, dated 2021).

Legend:
Type in all cases: in vivo
Galium spurium = assay: Test Example 5: herbicidal effect by foliage application, plastic box (symbol Q); conditions: 320 g/ha, 3 weeks after application
Method in brief: (§1)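 Visual herbicidal score, taken three weeks post-application, of seedlings sprayed on the foliage with water-diluted emulsion at a predetermined amount; plants were 14 days old, greenhouse-raised at 25° C. to 30° C.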

Apera spica-venti = assay: Test Example 4: herbicidal effect by soil treatment (symbol L)
Method in brief: (§2)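 Seeds were sown in sterilized diluvial soil, covered with about 1.5 cm of soil, and the soil surface was sprayed with a water-diluted emulsion of the compound at a predetermined rate. Plants grew in a greenhouse at 25° C. to 30° C.; effects were scored visually 3 weeks after application.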

Veronica persica [1] = assay: Test Example 4: herbicidal effect by soil treatment (symbol R)
Method in brief: as §2

Amaranthus retroflexus = assay: Test Example 4: herbicidal effect by soil treatment (symbol N)
Method in brief: as §2

Abutilon theophrasti = assay: Test Example 4: herbicidal effect by soil treatment (symbol M)
Method in brief: as §2

Cyperus difformis = assay: Test Example 3: herbicidal effect by foliage application, Wagner pot (symbol E); conditions: application herbicide amount 320 g/ha
Method in brief: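 Weeds and rice were sown in alluvial soil under 0.1–0.5 cm of standing water and grown for 14 days in a 25–30 °C greenhouse. An emulsion of the compound, diluted in water to a set dose, was sprayed evenly onto the foliage. Effect was scored against fixed criteria 3 weeks after treatment.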

corn = assay: Test Example 5: effect on crop by foliage application, plastic box (symbol c); conditions: 320 g/ha, 3 weeks after application
Method in brief: (§3)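 Seeds were sown in spots in sterilized diluvial soil held in a plastic box 21 cm × 13 cm × 7 cm deep, covered with about 1.5 cm of soil, and grown in a greenhouse at 25° C. to 30° C.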

[2] = tested on: Echinochloa oryzacola Vasing.; assay: Test Example 1: herbicidal activity, application before weed generation in submerged conditions (symbol A); conditions: application herbicide amount 320 g/ha
Method in brief: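 Paddy pre-emergence test. Formulated emulsion, water-diluted to a predetermined rate, is applied to floodwater on sowing day; rice transplanted at 2.5 leaves. Effect read at 3 weeks on a 0–5 herbicidal-ratio scale.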

wheat = assay: Test Example 4: effect on crop by soil treatment (symbol e); conditions: for e: wheat, effect grade on crop: 320 g/ha; for e: wheat, effect on crop grade: application herbicide amount 320 g/ha
Method in brief: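 The test used sterilized diluvial soil. Seed was set down in spots and overlaid with about 1.5 cm of soil before growth in a greenhouse kept at 25° C. to 30° C.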

Chenopodium album = assay: Test Example 5: herbicidal effect by foliage application, plastic box (symbol O); conditions: 320 g/ha, 3 weeks after application
Method in brief: as §1

Veronica persica [3] = assay: Test Example 5: herbicidal effect by foliage application, plastic box (symbol R); conditions: 320 g/ha, 3 weeks after application
Method in brief: as §1

soybean = assay: Test Example 5: effect on crop by foliage application, plastic box (symbol d); conditions: 320 g/ha, 3 weeks after application
Method in brief: as §3

[4] = application herbicide amount 320 g/ha

SMILES	herbicidal effect on E, grade 0-5 (Cyperus difformis)	Herbicidal effect grade, A: Echinochloa oryzacola Vasing. [2]	Q: Galium spurium, herbicidal effect grade (Galium spurium)	c: corn, effect on crop grade (corn)	O: Chenopodium album, herbicidal effect grade (Chenopodium album)	R: Veronica persica, herbicidal effect grade (Veronica persica [3])	d: soybean, effect on crop grade (soybean)	L: Apera spica-venti, herbicidal effect grade (Apera spica-venti; [4])	R: Veronica persica, herbicidal effect grade (Veronica persica [1]; [4])	N: Amaranthus retroflexus, herbicidal effect grade (Amaranthus retroflexus; [4])	M: Abutilon theophrasti, herbicidal effect grade (Abutilon theophrasti; [4])	e: wheat, effect on crop grade (wheat)	also measured
CON=C(C)CC1CC(OC(=O)c2ccccc2C(F)(F)F)=C(c2c(C)cc(C)cc2C)C1=O (stereo not drawn) [1-154]	5 (Herbicidal ratio of 90% or more (almost completely withered))	5 (Herbicidal ratio of 90% or more (almost completely withered))											Q: Galium spurium, herbicidal effect (criteria 0-5) (Galium spurium): 3 (Herbicidal ratio of 40% or higher and lower than 70%); L: Apera spica-venti, herbicidal effect grade (Apera spica-venti; 320 g/ha): 5 (Herbicidal ratio of 90% or more (almost completely withered)); R: Veronica persica, herbicidal effect grade (Veronica persica [1]; 320 g/ha): 0 (Herbicidal ratio of 5% or lower (almost no effect)); N: Amaranthus retroflexus, herbicidal effect grade (Amaranthus retroflexus; 320 g/ha): 4 (Herbicidal ratio of 70% or higher and lower than 90%); M: Abutilon theophrasti, herbicidal effect grade (Abutilon theophrasti; 320 g/ha): 4 (Herbicidal ratio of 70% or higher and lower than 90%); c: corn, effect on crop (criteria 0-5) (corn): 3 (Herbicidal ratio of 40% or higher and lower than 70%); e: wheat, effect grade on crop (wheat): 3 (Herbicidal ratio of 40% or higher and lower than 70%); O: Chenopodium album, herbicidal effect (criteria 0-5) (Chenopodium album): 1 (Herbicidal ratio of 5% or higher and lower than 20%); R: Veronica persica, herbicidal effect (criteria 0-5) (Veronica persica [3]): 3 (Herbicidal ratio of 40% or higher and lower than 70%); d: soybean, effect on crop (criteria 0-5) (soybean): 3 (Herbicidal ratio of 40% or higher and lower than 70%)
CC(=O)C(C(C)=O)C1CC(O)=C(c2c(C)cc(C)cc2C)C1=O (stereo not drawn) [2-002]	0 (Herbicidal ratio of 5% or lower (almost no effect))	0 (Herbicidal ratio of 5% or lower (almost no effect))	2 (Herbicidal ratio of 20% or higher and lower than 40%)	0 (Herbicidal ratio of 5% or lower (almost no effect))	3 (Herbicidal ratio of 40% or higher and lower than 70%)	1 (Herbicidal ratio of 5% or higher and lower than 20%)	0 (Herbicidal ratio of 5% or lower (almost no effect))						L: Apera spica-venti, herbicidal effect grade (Apera spica-venti; 320 g/ha): 0 (Herbicidal ratio of 5% or lower (almost no effect)); R: Veronica persica, herbicidal effect grade (Veronica persica [1]; 320 g/ha): 0 (Herbicidal ratio of 5% or lower (almost no effect)); N: Amaranthus retroflexus, herbicidal effect grade (Amaranthus retroflexus; 320 g/ha): 0 (Herbicidal ratio of 5% or lower (almost no effect)); M: Abutilon theophrasti, herbicidal effect grade (Abutilon theophrasti; 320 g/ha): 0 (Herbicidal ratio of 5% or lower (almost no effect)); e: wheat, effect grade on crop (wheat): 0 (Herbicidal ratio of 5% or lower (almost no effect))
CCC(=O)CC1CC(O)=C(c2c(C)cc(C)cc2C)C1=O (stereo not drawn) [2-006]	5 (Herbicidal ratio of 90% or more (almost completely withered))	5 (Herbicidal ratio of 90% or more (almost completely withered))	0 (Herbicidal ratio of 5% or lower (almost no effect))	0 (Herbicidal ratio of 5% or lower (almost no effect))	0 (Herbicidal ratio of 5% or lower (almost no effect))	0 (Herbicidal ratio of 5% or lower (almost no effect))	0 (Herbicidal ratio of 5% or lower (almost no effect))	5 (Herbicidal ratio of 90% or more (almost completely withered))	0 (Herbicidal ratio of 5% or lower (almost no effect))	0 (Herbicidal ratio of 5% or lower (almost no effect))	4 (Herbicidal ratio of 70% or higher and lower than 90%)	0 (Herbicidal ratio of 5% or lower (almost no effect))	
CCOC(=O)C(C(=O)C(F)(F)F)C1CC(O)=C(c2c(C)cc(C)cc2C)C1=O (stereo not drawn) [2-010]	0 (Herbicidal ratio of 5% or lower (almost no effect))	0 (Herbicidal ratio of 5% or lower (almost no effect))	0 (Herbicidal ratio of 5% or lower (almost no effect))	0 (Herbicidal ratio of 5% or lower (almost no effect))	0 (Herbicidal ratio of 5% or lower (almost no effect))	0 (Herbicidal ratio of 5% or lower (almost no effect))	0 (Herbicidal ratio of 5% or lower (almost no effect))	0 (Herbicidal ratio of 5% or lower (almost no effect))	0 (Herbicidal ratio of 5% or lower (almost no effect))	0 (Herbicidal ratio of 5% or lower (almost no effect))	0 (Herbicidal ratio of 5% or lower (almost no effect))	0 (Herbicidal ratio of 5% or lower (almost no effect))	
CCOC(=O)C(C(=O)Cc1ccccc1)C1CC(O)=C(c2c(C)cc(C)cc2C)C1=O (stereo not drawn) [2-011]	0 (Herbicidal ratio of 5% or lower (almost no effect))	0 (Herbicidal ratio of 5% or lower (almost no effect))	0 (Herbicidal ratio of 5% or lower (almost no effect))	0 (Herbicidal ratio of 5% or lower (almost no effect))	0 (Herbicidal ratio of 5% or lower (almost no effect))	0 (Herbicidal ratio of 5% or lower (almost no effect))	0 (Herbicidal ratio of 5% or lower (almost no effect))	0 (Herbicidal ratio of 5% or lower (almost no effect))	0 (Herbicidal ratio of 5% or lower (almost no effect))	0 (Herbicidal ratio of 5% or lower (almost no effect))	0 (Herbicidal ratio of 5% or lower (almost no effect))	0 (Herbicidal ratio of 5% or lower (almost no effect))	
CCOC(=O)C(CC)(C(C)=O)C1CC(O)=C(c2c(C)cc(C)cc2C)C1=O (stereo not drawn) [2-012]	0 (Herbicidal ratio of 5% or lower (almost no effect))	0 (Herbicidal ratio of 5% or lower (almost no effect))	0 (Herbicidal ratio of 5% or lower (almost no effect))	0 (Herbicidal ratio of 5% or lower (almost no effect))	0 (Herbicidal ratio of 5% or lower (almost no effect))	0 (Herbicidal ratio of 5% or lower (almost no effect))	0 (Herbicidal ratio of 5% or lower (almost no effect))	0 (Herbicidal ratio of 5% or lower (almost no effect))	0 (Herbicidal ratio of 5% or lower (almost no effect))	0 (Herbicidal ratio of 5% or lower (almost no effect))	0 (Herbicidal ratio of 5% or lower (almost no effect))	0 (Herbicidal ratio of 5% or lower (almost no effect))	
CCOC(=O)C(C(=O)c1ccccn1)C1CC(O)=C(c2c(C)cc(C)cc2C)C1=O (stereo not drawn) [2-013]	0 (Herbicidal ratio of 5% or lower (almost no effect))	0 (Herbicidal ratio of 5% or lower (almost no effect))	1 (Herbicidal ratio of 5% or higher and lower than 20%)	4 (Herbicidal ratio of 70% or higher and lower than 90%)	1 (Herbicidal ratio of 5% or higher and lower than 20%)	2 (Herbicidal ratio of 20% or higher and lower than 40%)	0 (Herbicidal ratio of 5% or lower (almost no effect))	0 (Herbicidal ratio of 5% or lower (almost no effect))	0 (Herbicidal ratio of 5% or lower (almost no effect))	0 (Herbicidal ratio of 5% or lower (almost no effect))	0 (Herbicidal ratio of 5% or lower (almost no effect))	0 (Herbicidal ratio of 5% or lower (almost no effect))	
